Experimental data published in publication PMC11189555, “Aryl amino acetamides prevent Plasmodium falciparum ring development via targeting the lipid-transfer protein PfSTART1” (Nature Communications, 2024).

Test system: ring-stage parasites
Assay: Parasite reduction ratio assay
Format: cell-based, Plasmodium falciparum
Protocol: Parasite reduction ratio assay. This was performed as previously described 9,10.
Briefly, asynchronous ring -stage parasites at 0.5% parasitemia and 2% haematocrit were exposed to compounds at 10 x EC50 of growth for five days with daily drug renewal. After each 24 h, a well from each treatment group was taken and washed three times in complete RPMI and final volume adjusted to 2% haematocrit. The washed culture was then aliquoted into a 96 well U-bottom plate and a 1:3 serial dilution into fresh uninfected RBCs was performed with four technical replicates for each time point. Plates were maintained in normal culturing conditions: media was replaced, and fresh RBCs given 1-2 times a week for three weeks, after which parasite growth was measured via lactate dehydrogenase assays. The number of viable parasites was calculated using the formula xn-1 +1, where x is the dilution factor and n is the number of wells that contain parasite growth. The viable parasite value was then expressed in log units and parasite reduction ratio was calculated as a decrease in […]

## CCN(CC)CCCC(C)Nc1ccnc2cc(Cl)ccc12 (centres unmarked) [CQ, chloroquine, reference compound]
10xEC50: 75 nM CQ, 60 nM W-991
  killing profile: fast-acting
Replicate 1, PRR calculations
  PRR: 4.528
Replicate 1, T=1
  log(parasite viability) +1: 2.863
Replicate 1, T=1, 1:3 dilution
  Parasite viability: 729
Replicate 1, T=2
  log(parasite viability) +1: 0.6021
Replicate 1, T=2, 1:3 dilution
  Parasite viability: 3
Replicate 1, T=3
  log(parasite viability) +1: 0
Replicate 1, T=3, 1:3 dilution
  Parasite viability: 0
Replicate 1, T=4
  log(parasite viability) +1: 0
Replicate 1, T=4, 1:3 dilution
  Parasite viability: 0
Replicate 1, T=5
  log(parasite viability) +1: 0
Replicate 1, T=5, 1:3 dilution
  Parasite viability: 0
Replicate 2, Hours 0
  log(parasite viability) +1 used in PRR calculations: 5.248
Replicate 2, PRR calculations
  PRR: 2.861
Replicate 2, T=1
  Parasite viability +1: 19684
  log(parasite viability) +1: 4.294
Replicate 2, T=1, 1:3 dilution
  Parasite viability: 19683
Replicate 2, T=2
  Parasite viability +1: 10
  log(parasite viability) +1: 1
Replicate 2, T=2, 1:3 dilution
  Parasite viability: 9
Replicate 2, T=3
  Parasite viability +1: 244
  log(parasite viability) +1: 2.387
Replicate 2, T=3, 1:3 dilution
  Parasite viability: 243
Replicate 2, T=4
  Parasite viability +1: 82
  log(parasite viability) +1: 1.914
Replicate 2, T=4, 1:3 dilution
  Parasite viability: 81
Replicate 2, T=5
  Parasite viability +1: 1
  log(parasite viability) +1: 0
Replicate 2, T=5, 1:3 dilution
  Parasite viability: 0
Replicate 3, 0 hours, start value (UT T=0) used in PRR calculations
  log(parasite viability) +1: 5.248
Replicate 3, T=1
  Parasite viability (1:3 dilution): 6561
  log(parasite viability) +1: 3.817
Replicate 3, T=2
  Parasite viability (1:3 dilution): 9
Replicate 3, T=2 (48 hours in PRR calculations)
  log(parasite viability) +1: 1
Replicate 3, T=3
  Parasite viability (1:3 dilution): 0
Replicate 3, T=3 (72 hours in PRR calculations)
  log(parasite viability) +1: 0
Replicate 3, T=4
  Parasite viability (1:3 dilution): 0
  log(parasite viability) +1: 0
Replicate 3, T=5
  Parasite viability (1:3 dilution): 0
Replicate 3, T=5 (120 hours in PRR calculations)
  log(parasite viability) +1: 0
Replicate 3, difference of log viability over 48 h (CQ 0-48 hours, W991 72-120 hours)
  PRR: 4.248
